This is an account of results in ChEMBL document CHEMBL3792283, “Biphenyl-4-yl-acrylohydroxamic acids: Identification of a novel indolyl-substituted HDAC inhibitor with antitumor activity” (Eur J Med Chem, 2016).

The structures appear in SMILES notation. pIC50: −log10 of the molar value. Active and inactive are the calls of the source. No cut-off for these calls is given here.

Experiment [1] in a line: Antiproliferative activity against human IGROV1 cells assessed as reduction in cell number after 72 hrs by cell counter analysis. It is filed as functional, cell-based. Conditions: IGROV-1, 72 h.
Experiment [2] in a line: Antiproliferative activity human HCT116 cells assessed as reduction in cell number after 72 hrs by cell counter analysis. It is filed as functional, cell-based. Conditions: HCT-116, 72 h.
A short description of experiment [3]: Antiproliferative activity against human H460 cells assessed as reduction in cell number after 72 hrs by cell counter analysis. It is filed as functional, cell-based. Conditions: NCI-H460, 72 h.
For experiment [4], the system named is HT-29. The experiment is described as follows: Antiproliferative activity against human HT-29 cells assessed as reduction in cell number after 72 hrs by cell counter analysis. In kind it is functional, cell-based. Conditions: HT-29, 72 h.
For experiment [5], the system named is HT-29. The experiment in a line: Antiproliferative activity against mitoxantrone resistant human HT-29 cells assessed as reduction in cell number after 72 hrs by cell counter analysis. It is filed as functional, cell-based. The conditions noted are these: HT-29, 72 h.
Experiment [6] has as its target Histone deacetylase. The experiment in a line: Inhibition of HDAC in human HeLa nuclear extract using BOC-Ac-Lys-AMC as substrate incubated for 90 mins by fluorescence assay. In kind it is protein assay.
The target of another experiment is Histone deacetylase 2 (Homo sapiens, UniProt Q92769). The experiment is described as follows: Inhibition of human recombinant HDAC2 using Fluor de Lys Green as substrate incubated for 30 mins by fluorescence assay.
Sequence of Histone deacetylase 2 (Q92769 whole entry): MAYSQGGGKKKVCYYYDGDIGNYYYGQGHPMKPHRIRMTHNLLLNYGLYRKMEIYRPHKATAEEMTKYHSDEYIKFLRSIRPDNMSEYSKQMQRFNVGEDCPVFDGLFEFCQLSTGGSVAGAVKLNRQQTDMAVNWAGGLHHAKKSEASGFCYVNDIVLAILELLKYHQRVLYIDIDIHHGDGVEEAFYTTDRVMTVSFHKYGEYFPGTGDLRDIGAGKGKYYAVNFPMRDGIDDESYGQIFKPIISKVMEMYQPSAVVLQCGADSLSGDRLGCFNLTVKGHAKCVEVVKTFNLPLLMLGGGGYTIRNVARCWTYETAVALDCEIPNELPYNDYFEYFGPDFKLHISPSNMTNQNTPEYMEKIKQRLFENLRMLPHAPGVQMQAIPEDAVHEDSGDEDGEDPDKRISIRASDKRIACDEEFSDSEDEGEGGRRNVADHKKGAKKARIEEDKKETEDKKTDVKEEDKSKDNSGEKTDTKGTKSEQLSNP
Experiment [7] has as its target Histone deacetylase. The experiment in a line: Inhibition of HDAC in human HeLa cells using BOC-Ac-Lys-AMC as substrate incubated for 4 hrs by fluorescence assay. It is filed as cell-based.
In a further experiment the test system is LoVo. The experiment in a line: Antiproliferative activity against human LoVo cells assessed as reduction in cell number after 72 hrs by cell counter analysis. It is filed as functional, cell-based.
Experiment [8] in a line: Antiproliferative activity against human LoVo/DX cells assessed as reduction in cell number after 72 hrs by cell counter analysis. In kind it is functional, cell-based.
Experiment [9] concerns IGROV-1. The experiment in a line: Induction of apoptosis in human IGROV1 cells at 1 uM after 72 hrs by TUNEL assay (reference value: 3%). In kind it is functional.
The test system of experiment [10] is IGROV-1. The experiment in a line: Induction of apoptosis in human IGROV1 cells at 0.3 uM after 72 hrs by TUNEL assay (reference value: 3%). It is filed as functional.
The nature of experiment [11]: Cell cycle arrest in human IGROV1 cells assessed as accumulation at G1 phase at 0.3 to 1 uM after 72 hrs by propidium iodide staining based flow cytometry. Conditions: IGROV-1. In kind it is functional.
The next experiment is described as follows: animal or person. In kind it is functional. Conditions: Homo sapiens, HCT-116, po, read-out: TGI.

Description for animal or person: Antitumor activity against human HCT116 cells xenografted in athymic Swiss nude mouse assessed as tumor growth inhibition at 175 mg/kg, po for 5 days a week for 4 weeks relative to control

In the case of `O=C(CCCCCCC(=O)Nc1ccccc1)NO` [VORINOSTAT], the figures for the pIC50 in experiment [1] and in [2] were 5.66 and 6.51, respectively.
Consider `COc1ccc(-c2ccc(/C=C/C(=O)NO)cc2)cc1`, for which the negative-log IC50 (pIC50) is 6.12 in [1]; 5.43 in [3]; 5.80 in the experiment on HT-29 [4]; 5.76 in the experiment on HT-29 [5]; 6.59 in experiment [2].
For the compound `CC(C)=C(c1ccccc1)c1ccc(/C=C/C(=O)NO)cc1`, the half-maximal inhibitory concentration (IC50) on Histone deacetylase [6] was 2600 nM; on Histone deacetylase [7], 2500 nM. Besides, the negative logarithm of the IC50 (pIC50) at Histone deacetylase 2 was 4.93; in experiment [1], 5.60; in experiment [3], 5.26; in the experiment with LoVo it was 5.55; in the experiment on HT-29 [4] it was 5.39; in experiment [2] it was 5.70.
Regarding `Cc1[nH]c2ccccc2c1/C=C/c1ccccc1-c1ccc(/C=C/C(=O)NO)cc1`, the pIC50 in experiment [1] is 6.46; in experiment [3], 5.85; in the experiment on LoVo, 5.18; in experiment [8] it was 5.34; with HT-29 [4], 5.86; in the experiment with HT-29 [5] it was 5.61. Further, the negative logarithm of the IC50 (pIC50) in experiment [2] is 6.57. The Activity in the experiment with IGROV-1 [9] was determined as 79%; in the experiment on IGROV-1 [10], 34%. Besides, in experiment [11], the outcome was Active. Besides, the inhibition in vivo at 175 mg/kg in the experiment “animal or person” came to 68%.

One may read the pIC50 as −log10 of the IC50, conventionally taken in molar units. The IC50 is the concentration that gives 50% inhibition.
